Data: patent EP0193249A2, “Benzoyl urea derivatives having ati-tumor activity” (DUPHAR INTERNATIONAL RESEARCH B.V, priority 1985, dated 1986)

System: B16 melanoma cells
Assay: B16 melanoma test (test 1)
Assay type: cell-based
Settings: Mus musculus, 50 /ug/ml, aqueous suspension, incubation 20 hours, cells counted 48 hours after start
Method: B16 melanoma cells grow as a "mono]ayer". The doubling time of these cells in a cell culture is 12-16 hours.
On day 0, a quantity of […] B16 melanoma cells is introduced in each cell culture dish.
On day 1 the compounds to be examined are vortexed in the presence of glass beads. The compound to be tested is then added to the dishes with melanoma celles in the desired quantity. The incubation takes place at 37°C for 20 hours in a C02 incubator. The incubation is terminated by removing the culture medium with therein the compound to be tested, after which the cells are wahsed once and fresh medium is added.
Forty-eight hours after the beginning of the incubation the quantity of cells in each dish is measured by means of a microcell Coulter Counter. The results thus obtained are expressed by indicating the activity of the compounds by 1+, 2+, 3+, 4+ or 5+ having the following meanings: • 1+: cell growth is inhibited by 1-20% with respect to the control test • 2+: cell growth is inhibited by 21-40% with respect to the control test • 3+: cell growth is inhibited by 41-60% with respect to the control test • 4+: cell growth is inhibited by 61-80% with respect to the control test • 5+: cell growth is inhibited by 81-100% with respect to the control test.
Sensitivity of B16 melanoma cells.
In the above-described manner, various compounds according to the invention were tested in dosages of 50 /ug/ml in the form of an aqueous suspension.

Structure (SMILES) | inhibition at 50 µg/mL [%]
O=C(NC(=O)c1c(O)cccc1Cl)Nc1c(F)c(F)c(F)c(F)c1F [compound 1] | 61 to 80
O=C(NC(=O)c1c(F)c(F)c(F)c(F)c1F)Nc1ccc(O)c(C(F)(F)F)c1 [compound 2] | 81 to 100
CN(C)c1cccc(F)c1C(=O)NC(=O)Nc1ccc(Cl)cc1 [compound 3] | 81 to 100
O=C(NC(=O)c1c(F)cccc1F)Nc1ccc(C(O)(C(F)(F)F)C(F)(F)F)cc1 [compound 4] | 81 to 100
CCOC(=O)c1ccc(NC(=O)NC(=O)c2c(F)cccc2F)cc1 [compound 5] | 41 to 60
O=C(NC(=O)c1c(F)c(F)c(F)c(F)c1F)Nc1c(F)c(F)c(F)c(F)c1F [compound 6] | 81 to 100
O=C(NC(=O)c1c(F)c(F)c(F)c(F)c1F)Nc1ccc(Cl)cc1 [compound 7] | 61 to 80
Nc1ccc(C(=O)NC(=O)Nc2ccccc2N)cc1 [compound 8] | 1 to 20
Nc1cc(N)c(Cl)c(C(=O)NC(=O)Nc2ccc(Cl)cc2)c1Cl [compound 9] | 21 to 40
O=C(NC(=O)c1ccccc1N1CCCCC1)Nc1ccc(C(F)(F)F)cc1 [compound 10] | 1 to 20
COc1ccc(NC(=O)NC(=O)c2c(F)cccc2N(C)C)cc1 [compound 11] | 81 to 100
CN(C)c1cccc(F)c1C(=O)NC(=O)Nc1c(F)c(F)c(F)c(F)c1F [compound 12] | 61 to 80
Nc1ccccc1C(=O)NC(=O)Nc1ccc(Cl)cc1 [compound 13] | 1 to 20
CC(Oc1ccc(NC(=O)NC(=O)c2c(F)cccc2F)cc1)c1ccncc1 (centres unmarked) [compound 14] | 61 to 80
CN(C)c1ccccc1C(=O)NC(=O)Nc1ccc(Cl)cc1 [compound 15] | 81 to 100
O=C(NC(=O)Nc1ccc(Cl)cc1)NC(=O)c1c(O)cccc1Cl [compound 16] | 61 to 80
CCN(CC)c1cccc(F)c1C(=O)NC(=O)Nc1ccc(Cl)cc1 [compound 17] | 21 to 40
